According to publication PMC9841585 (ACS Medicinal Chemistry Letters, 2022):

System: CHO cells
Assay: Biotium XTT cell viability kit
Format: cell-based, Chinese hamster
Conditions: 24 hours, medium with 5% serum

## Cc1nc(N2CCN(C(=O)c3ccco3)CC2)c2c3c(sc2n1)CC(C)(C)CC3 [Compound 24]
  cytotoxicity (no cytotoxicity up to): > 10 µM
